The text below walks through data of patent US20240025884A1 (Dong-A ST Co., Ltd., priority 2022, published 2024).

Chain of GCN2 (Q9P2K8 whole entry): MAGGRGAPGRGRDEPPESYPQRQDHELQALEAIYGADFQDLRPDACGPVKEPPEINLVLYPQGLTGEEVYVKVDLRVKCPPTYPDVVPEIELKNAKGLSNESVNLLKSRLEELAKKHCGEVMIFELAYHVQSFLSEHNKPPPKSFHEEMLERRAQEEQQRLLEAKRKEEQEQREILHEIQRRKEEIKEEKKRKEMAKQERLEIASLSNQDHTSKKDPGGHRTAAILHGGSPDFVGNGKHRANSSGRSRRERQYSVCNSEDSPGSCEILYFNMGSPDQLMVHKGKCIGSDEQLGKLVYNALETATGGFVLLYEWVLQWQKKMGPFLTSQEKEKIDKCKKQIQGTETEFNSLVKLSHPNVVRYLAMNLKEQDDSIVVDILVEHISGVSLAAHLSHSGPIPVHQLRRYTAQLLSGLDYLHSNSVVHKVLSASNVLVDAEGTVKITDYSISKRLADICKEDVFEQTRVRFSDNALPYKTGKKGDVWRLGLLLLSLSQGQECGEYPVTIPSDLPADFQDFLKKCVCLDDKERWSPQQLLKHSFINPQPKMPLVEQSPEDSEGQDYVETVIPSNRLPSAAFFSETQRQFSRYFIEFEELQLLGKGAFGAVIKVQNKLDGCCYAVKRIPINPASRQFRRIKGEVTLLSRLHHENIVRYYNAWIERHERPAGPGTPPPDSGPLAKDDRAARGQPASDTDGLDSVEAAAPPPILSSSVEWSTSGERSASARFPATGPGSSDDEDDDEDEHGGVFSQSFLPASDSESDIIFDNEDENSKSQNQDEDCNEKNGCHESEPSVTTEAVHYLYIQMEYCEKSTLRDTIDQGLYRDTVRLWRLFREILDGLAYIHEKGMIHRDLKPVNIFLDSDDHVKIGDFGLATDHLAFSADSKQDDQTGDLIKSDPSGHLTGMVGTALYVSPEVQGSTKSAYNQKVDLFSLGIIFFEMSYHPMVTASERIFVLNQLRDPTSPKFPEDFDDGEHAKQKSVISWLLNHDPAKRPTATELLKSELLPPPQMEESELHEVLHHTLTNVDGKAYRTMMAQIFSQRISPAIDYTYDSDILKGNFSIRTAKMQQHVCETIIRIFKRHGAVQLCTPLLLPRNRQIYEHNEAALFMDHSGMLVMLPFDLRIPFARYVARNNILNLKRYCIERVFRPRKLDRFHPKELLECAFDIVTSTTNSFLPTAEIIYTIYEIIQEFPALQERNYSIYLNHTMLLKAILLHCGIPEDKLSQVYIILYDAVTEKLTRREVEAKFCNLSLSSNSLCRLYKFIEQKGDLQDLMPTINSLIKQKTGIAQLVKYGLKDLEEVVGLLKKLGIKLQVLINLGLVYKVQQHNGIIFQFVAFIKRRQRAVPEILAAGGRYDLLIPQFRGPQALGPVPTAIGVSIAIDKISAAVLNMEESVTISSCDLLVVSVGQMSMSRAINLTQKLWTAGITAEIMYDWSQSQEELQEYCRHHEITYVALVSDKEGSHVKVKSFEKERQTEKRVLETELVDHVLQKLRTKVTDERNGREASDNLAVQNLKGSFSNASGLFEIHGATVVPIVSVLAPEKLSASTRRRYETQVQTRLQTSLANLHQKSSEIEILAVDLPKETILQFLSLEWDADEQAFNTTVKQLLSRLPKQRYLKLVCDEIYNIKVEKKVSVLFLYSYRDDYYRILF

The assay concerns the target GCN2 (Homo sapiens (Human), UniProt Q9P2K8). Description: GCN2 Biochemical Assay (TR-FRET, GFP-eIF2S1 substrate phosphorylation). The note with it: read-out: IC50 (GCN2 Inhibitory Activity). The gist of the method: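 TR-FRET readout (Ex 340, Em 490/520 nm) after 2–3 h with Tb-labelled phospho-eIF2S1 antibody in stop mix, following a 70 min room-temperature kinase step. Reaction: in-house GCN2, GFP-eIF2S1, ATP, tRNA in Tris pH 7.5 (2× stocks 1.6 nM, 50 nM, 0.2 mM); compounds tested at 10 concentrations, with a phospho-substrate artifact counter-plate.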
In the case of `COc1ccccc1-c1cccc2c1CN(c1cccc3c(-c4nc(Nc5cc(C)n(C)n5)ncc4C)c[nH]c13)C2=O` [Example 438, 2-(3-(2-((1,5-dimethyl-1H-pyrazol-3-yl)amino)-5-methylpyrimidin-4-yl)-1H-indol-7-yl)-4-(2-methoxyphenyl)isoindolin-1-one], the IC50 (commonly the point on the concentration scale where inhibition reaches its midpoint) is 10 to 100 nM.
`Cc1cnc(Nc2cc(C)n(C)n2)nc1-c1c[nH]c2c(N3Cc4ccccc4C3=O)cccc12` [Example 267, 2-(3-(2-((1,5-dimethyl-1H-pyrazol-3-yl)amino)-5-methylpyrimidin-4-yl)-1H-indol-7-yl)isoindolin-1-one]: the half-inhibitory concentration (IC50) lay in the range of 10 to 100 nM.
Turning to `CCCCCc1cnc(O[C@H]2CCN(CC(=O)Nc3cccc4c(-c5nc(Nc6cc(C)n(C)n6)ncc5C)c[nH]c34)C2)nc1` [Example 102, (S)-N-(3-(2-((1,5-dimethyl-1H-pyrazol-3-yl)amino)-5-methylpyrimidin-4-yl)-1H-indol-7-yl)-2-(3-((5-pentylpyrimidin-2-yl)oxy)pyrrolidin-1-yl)acetamide], the IC50 was 10 to 100 nM.
For `Cc1cnc(Nc2cc(C)n(C)n2)nc1-c1c[nH]c2c(N3Cc4cccc([N+](=O)[O-])c4C3=O)cccc12` [Example 274, 2-(3-(2-((1,5-dimethyl-1H-pyrazol-3-yl)amino)-5-methylpyrimidin-4-yl)-1H-indol-7-yl)-7-nitroisoindolin-1-one], the IC50 is less than 10 nM.
As to `CCN(CC)C(=O)/C=C/c1cccc2c1CN(c1cccc3c(-c4nc(Nc5cc(C)n(C)n5)ncc4C)c[nH]c13)C2=O` [Example 368, (E)-3-(2-(3-(2-((1,5-dimethyl-1H-pyrazol-3-yl)amino)-5-methylpyrimidin-4-yl)-1H-indol-7-yl)-1-oxoisoindolin-4-yl)-N,N-diethylacrylamide], the IC50 was less than 10 nM.
In the case of `Cc1cnc(Nc2cc(C)n(C)n2)nc1-c1c[nH]c2c(N3Cc4c(cccc4-c4ccc(N)nc4)C3=O)cccc12` [Example 420, 4-(6-aminopyridin-3-yl)-2-(3-(2-((1,5-dimethyl-1H-pyrazol-3-yl)amino)-5-methylpyrimidin-4-yl)-1H-indol-7-yl)isoindolin-1-one], the IC50 was less than 10 nM.
Take `Cc1cnc(Nc2cc(C)n(C)n2)nc1-c1c[nH]c2c(NC(=O)CN3CC[C@H](Oc4ccnc(Cl)c4)C3)cccc12` [Example 91]: the concentration for half-maximal inhibition (IC50) lay in the range of 10 to 100 nM.
For `Cc1cnc(Nc2cc(C)n(C)n2)nc1-c1c[nH]c2c(NC(=O)CN3CC[C@H](Oc4ccnc(NCC(F)(F)F)n4)C3)cccc12` [Example 198, (S)-N-(3-(2-((1,5-dimethyl-1H-pyrazol-3-yl)amino)-5-methylpyrimidin-4-yl)-1H-indol-7-yl)-2-(3-((2-((2,2,2-trifluoroethyl)amino)pyrimidin-4-yl)oxy)pyrrolidin-1-yl)acetamide], the concentration for half-maximal inhibition (IC50) was less than 10 nM.
As for `Cc1nc(C(=O)Nc2cccc3c2CN(c2cccc4c(-c5nc(Nc6cc(C)n(C)n6)ncc5C)c[nH]c24)C3=O)co1` [Example 322, N-(2-(3-(2-((1,5-dimethyl-1H-pyrazol-3-yl)amino)-5-methylpyrimidin-4-yl)-1H-indol-7-yl)-1-oxoisoindolin-4-yl)-2-methyloxazole-4-carboxamide], the figure is less than 10 nM.
Next, `Cc1cnc(Nc2cc(C)n(C)n2)nc1-c1c[nH]c2c(N3Cc4c(/C=C/C(=O)NCCO)cccc4C3=O)cccc12` [Example 372, (E)-3-(2-(3-(2-((1,5-dimethyl-1H-pyrazol-3-yl)amino)-5-methylpyrimidin-4-yl)-1H-indol-7-yl)-1-oxoisoindolin-4-yl)-N-(2-hydroxyethyl)acrylamide]: less than 10 nM; `Cc1cnc(Nc2cc(C)n(C)n2)nc1-c1c[nH]c2c(N3Cc4cccc(Nc5ccccc5)c4C3=O)cccc12` [Example 346, 2-(3-(2-((1,5-dimethyl-1H-pyrazol-3-yl)amino)-5-methylpyrimidin-4-yl)-1H-indol-7-yl)-7-(phenylamino)isoindolin-1-one]: 100 to 1000 nM; `Cc1cnc(Nc2cc(C)n(C)n2)nc1-c1c[nH]c2c(N3Cc4c(NC(=O)[C@H]5C[C@H](N)CN5)cccc4C3=O)cccc12` [Example 331, (2R,4S)-4-amino-N-(2-(3-(2-((1,5-dimethyl-1H-pyrazol-3-yl)amino)-5-methylpyrimidin-4-yl)-1H-indol-7-yl)-1-oxoisoindolin-4-yl)pyrrolidine-2-carboxamide]: less than 10 nM.
For the molecule `COc1cnc(Nc2cc(C)n(C)n2)nc1-c1c[nH]c2c(NC(=O)CN3CC[C@H](Oc4cnnc(NC5CC5)n4)C3)cccc12` [Example 14, (S)-2-(3-((3-(cyclopropylamino)-1,2,4-triazin-5-yl)oxy)pyrrolidin-1-yl)-N-(3-(2-((1,5-dimethyl-1H-pyrazol-3-yl)amino)-5-methoxypyrimidin-4-yl)-1H-indol-7-yl)acetamide], the IC50 was less than 10 nM.
For `Cc1cnc(Nc2cc(C)n(CCN3CCOCC3)n2)nc1-c1c[nH]c2c(NC(=O)CN3CC[C@H](Oc4ccnc(NC5CC5)n4)C3)cccc12` [Example 17, (S)-2-(3-((2-(cyclopropylamino)pyrimidin-4-yl)oxy)pyrrolidin-1-yl)-N-(3-(5-methyl-2-((5-methyl-1-(2-morpholinoethyl)-1H-pyrazol-3-yl)amino)pyrimidin-4-yl)-1H-indol-7-yl)acetamide], the IC50 is less than 10 nM.
Turning to `Cc1cnc(Nc2cc(C)n(C)n2)nc1-c1c[nH]c2c(N3Cc4cc(Br)cnc4C3=O)cccc12` [Example 285, 3-bromo-6-(3-(2-((1,5-dimethyl-1H-pyrazol-3-yl)amino)-5-methylpyrimidin-4-yl)-1H-indol-7-yl)-5,6-dihydro-7H-pyrrolo[3,4-b]pyridin-7-one], the IC50 was less than 10 nM.
Turning to `CCNc1cncc(O[C@H]2CCN(CC(=O)Nc3cccc4c(-c5nc(Nc6cc(C)n(C)n6)ncc5C)c[nH]c34)C2)n1` [Example 244, (S)-N-(3-(2-((1,5-dimethyl-1H-pyrazol-3-yl)amino)-5-methylpyrimidin-4-yl)-1H-indol-7-yl)-2-(3-((6-(ethylamino)pyrazin-2-yl)oxy)pyrrolidin-1-yl)acetamide], the IC50 lay within 10 to 100 nM.
As for `Cc1cnc(Nc2cc(C)n(C)n2)nc1-c1c[nH]c2c(N3Cc4c(NC(=O)CN(C)C)cccc4C3=O)cccc12` [Example 335, N-(2-(3-(2-((1,5-dimethyl-1H-pyrazol-3-yl)amino)-5-methylpyrimidin-4-yl)-1H-indol-7-yl)-1-oxoisoindolin-4-yl)-2-(dimethylamino)acetamide], the IC50 was less than 10 nM.
As for `COc1cc(OC)c2c(c1)C(=O)N(c1cccc3c(-c4nc(Nc5cc(C)n(C)n5)ncc4C)c[nH]c13)C2` [Example 280, 2-(3-(2-((1,5-dimethyl-1H-pyrazol-3-yl)amino)-5-methylpyrimidin-4-yl)-1H-indol-7-yl)-4,6-dimethoxyisoindolin-1-one], the figure is 100 to 1000 nM; as for `Cc1cnc(Nc2cc(C)n(C)n2)nc1-c1c[nH]c2c(NC(=O)CN3CC[C@H](Oc4ccsc4C(=O)NC4CC4)C3)cccc12` [Example 111, (S)-N-cyclopropyl-3-((1-(2-((3-(2-((1,5-dimethyl-1H-pyrazol-3-yl)amino)-5-methylpyrimidin-4-yl)-1H-indol-7-yl)amino)-2-oxoethyl)pyrrolidin-3-yl)oxy)thiophene-2-carboxamide], less than 10 nM; as for `Cc1cnc(Nc2cc(C)n(C)n2)nc1-c1c[nH]c2c(N3Cc4c(NC(=O)C5CCCCCC5)cccc4C3=O)cccc12` [Example 312, N-(2-(3-(2-((1,5-dimethyl-1H-pyrazol-3-yl)amino)-5-methylpyrimidin-4-yl)-1H-indol-7-yl)-1-oxoisoindolin-4-yl)cycloheptanecarboxamide], 10 to 100 nM.
In the case of `Cc1cnc(Nc2cc(C)n(C)n2)nc1-c1c[nH]c2c(NC(=O)CN3CC[C@H](Oc4cc(N(C)C)ncn4)C3)cccc12` [Example 153, (S)-N-(3-(2-((1,5-dimethyl-1H-pyrazol-3-yl)amino)-5-methylpyrimidin-4-yl)-1H-indol-7-yl)-2-(3-((6-(dimethylamino)pyrimidin-4-yl)oxy)pyrrolidin-1-yl)acetamide], the IC50 was less than 10 nM.
Take `Cc1cc(O[C@H]2CCN(CC(=O)Nc3cccc4c(-c5nc(Nc6cc(C)n(C)n6)ncc5C)c[nH]c34)C2)nc(N)n1` [Example 95, (S)-2-(3-((2-amino-6-methylpyrimidin-4-yl)oxy)pyrrolidin-1-yl)-N-(3-(2-((1,5-dimethyl-1H-pyrazol-3-yl)amino)-5-methylpyrimidin-4-yl)-1H-indol-7-yl)acetamide]: the IC50 was less than 10 nM.
In the case of `Cc1cnc(Nc2cc(C)n(C)n2)nc1-c1c[nH]c2c(NC(=O)C(=O)N3CC[C@H](Oc4ccnc(NC5CC5)n4)C3)cccc12` [Example 20, (S)-2-(3-((2-(cyclopropylamino)pyrimidin-4-yl)oxy)pyrrolidin-1-yl)-N-(3-(2-((1,5-dimethyl-1H-pyrazol-3-yl)amino)-5-methylpyrimidin-4-yl)-1H-indol-7-yl)-2-oxoacetamide], the IC50 was less than 10 nM.
As for `CCNc1cc(O[C@H]2CCN(CC(=O)Nc3cccc4c(-c5nc(Nc6cc(C)n(C)n6)ncc5C)c[nH]c34)C2)ncn1` [Example 142, (S)-N-(3-(2-((1,5-dimethyl-1H-pyrazol-3-yl)amino)-5-methylpyrimidin-4-yl)-1H-indol-7-yl)-2-(3-((6-(ethylamino)pyrimidin-4-yl)oxy)pyrrolidin-1-yl)acetamide], the figure is less than 10 nM.
In the case of `Cc1cnc(Nc2cc(C)n(C)n2)nc1-c1c[nH]c2c(NC(=O)CN3CCC(Oc4ccccn4)CC3)cccc12` [Example 39, N-(3-(2-((1,5-dimethyl-1H-pyrazol-3-yl)amino)-5-methylpyrimidin-4-yl)-1H-indol-7-yl)-2-(4-(pyridin-2-yloxy)piperidin-1-yl)acetamide], the half-maximal inhibitory concentration (IC50) was 100 to 1000 nM.
As for `Cc1cnc(Nc2cc(C)n(C)n2)nc1-c1c[nH]c2c(N3Cc4c(/C=C/C(=O)NC5CC5)cccc4C3=O)cccc12` [Example 365, (E)-N-cyclopropyl-3-(2-(3-(2-((1,5-dimethyl-1H-pyrazol-3-yl)amino)-5-methylpyrimidin-4-yl)-1H-indol-7-yl)-1-oxoisoindolin-4-yl)acrylamide], the IC50 was less than 10 nM.
